Assay results reported in patent publication EP2283839A1, “Polyunsaturated hydroxylated molecule having an eze geometry and its use in therapy” (Institut National des Sciences Appliquées de Lyon, priority 2009, dated 2011).
Marks after values point to notes of the source that are not given here.

Test system: platelets isolated from human blood
Test: Measurement of platelet aggregation (turbidimetric method, aggregometer)
Type: cell-based
Conditions: 1 µM triene molecules; Collagen-induced platelet aggregation; measured after 4 min
Procedure: Aggregation tests were performed on platelets isolated from human blood in presence or not of different dihydroxylated triene compounds with different double bond geometry: ZEE, EZE or ZZZ. Platelet aggregation was determined by a standard turbidimetric method using a dual aggregometer (CHRONO-LOG, USA). The levels of light transmission were calibrated as 0 % for a platelet suspension and 100% for the Tyrode/HEPES solution (pH 7.35). 400 µl of platelet suspension in a vial was preincubated for 1 min at 37 °C under a continuous stirring condition, 1 µl of sample in ethanol was added for incubation, the activators (collagen, arachidonic acid, or U46619) were added after 2 min of incubation and the extent of platelet aggregation was measured after 4 min running. Other compounds were prepared using the same procedure or by conversion of PDX and compared to similar compounds of different configurations ZEE or EEE. Table I: Effects of 1 µM triene molecules on Collagen-induced platelet aggregation

**Q.** For `CC/C=C\C[C@H](O)/C=C/C=C\C=C\[C@H](O)C/C=C\C/C=C\CCC(=O)O` [10(R),17(S)-diOH-22:6, 10(R),17(S)-dihydroxy-docosa-4Z,7Z,11E,13Z,15E,17Z-hexaenoic acid], which “% inhibition” value is on record?
**A.** 70.0** %

**Q.** With `CCCCC[C@H](O)/C=C/C=C\C=C\[C@@H](O)C/C=C\CCCC(=O)O` [8(S),15(S)-diHETE, 8(S),15(S)-dihydroxy-eicosa-5Z,9E,11Z,13E -tetraenoic acid] as the molecule, how does the “% inhibition” value read?
**A.** 66.5** %

**Q.** How did the “% inhibition” value turn out when `CCCCCCCC[C@H](O)/C=C/C=C/C=C\[C@@H](O)CCCC(=O)O` [12-epi LTB3, 5(S),12(S)-dihydroxy-eicosa-6Z,8E,10E,-trienoic acid] was run?
**A.** 7.4%

**Q.** `CCCCCCCC[C@@H](O)/C=C/C=C/C=C\[C@@H](O)CCCC(=O)O` [LTB3, 5(S),12(R)-dihydroxy-eicosa-6Z,8E,10E,-trienoic acid] was tested. Which “% inhibition” value did it give?
**A.** 5.0%

**Q.** How did the “% inhibition” value turn out when `CCCCC/C=C\C[C@H](O)/C=C/C=C/C=C/[C@@H](O)CCCC(=O)O` [6trans-12-epi LTB4, 5(S),12(S)-dihydroxy-eicosa-6E,8E,10E,14Z-tetraenoic acid] was run?
**A.** 1.8%

**Q.** `CCCCC/C=C\C[C@H](O)/C=C/C=C\C=C\[C@@H](O)CCCC(=O)O` [5(S),12(S)-diHETE, 5(S),12(S)-dihydroxy-eicosa-6E,8Z,10E,14Z tetraenoic acid] was tested. Which “% inhibition” value did it give?
**A.** 74.9** %

**Q.** How did the “% inhibition” value turn out when `CCCCC/C=C\C[C@@H](O)/C=C/C=C/C=C\[C@@H](O)CCCC(=O)O` [LTB4, 5(S),12(R)-dihydroxy-eicosa-6Z,8E,10E,14Z-tetraenoic acid] was run?
**A.** 3.4%

**Q.** How did the “% inhibition” value turn out when `CCCCC/C=C\C[C@@H](O)/C=C/C=C/C=C/[C@@H](O)CCCC(=O)O` [6-trans LTB4, 5(S),12(R)-dihydroxy-eicosa-6E,8E,10E,14Z-tetraenoic acid] was run?
**A.** 8.1%

**Q.** For `CCCCC/C=C\C[C@H](O)/C=C/C=C/C=C\[C@@H](O)CCCC(=O)O` [12-epi LTB4, 5(S),12(S)-dihydroxy-eicosa-6Z,8E,10E,14Z-tetraenoic acid], which “% inhibition” value is on record?
**A.** 3.9%

**Q.** `CC/C=C\C[C@H](O)/C=C/C=C\C=C\[C@@H](O)C/C=C\C/C=C\CCC(=O)O` [PDX, 10S,17S-dihydroxy-docosa-4Z,7Z,11E,13Z,15E,19Z-hexaenoic acid] was tested. Which “% inhibition” value did it give?
**A.** 56.1** %

**Q.** For `CCCCC[C@H](O)/C=C/C=C\C=C\[C@@H](O)CCCCCCCCC(=O)O` [diOH-22:3, 10(S),17(S)-dihydroxy-docosa-11E,13Z,15E,-trienoic acid], which “% inhibition” value is on record?
**A.** 63.8** %
